Measurements reported in US20230159445A1, “STAT INHIBITORY COMPOUNDS AND COMPOSITIONS” (JANPIX LIMITED, priority 2020, published 2023).

Legend:
MV4-11 cells = experiment: MV4-11 Cell Cytotoxicity Assay (CellTiter-Blue, 72 h); format: cell-based, human; settings: Homo sapiens, MV4-11; MV-4-11 cells
How it was run: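 Cells seeded 24 h before treatment, then exposed 72 h at 37° C, 5% CO2 to inhibitors in triplicate, top concentration 50 μM with 1:2 serial dilutions (0.5% DMSO vehicle). Viability read by CellTiter-Blue fluorescence at 560/590 nm after 1 h.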

glutathione (GSH) = experiment: Reactivity Profiling with Glutathione (GSH), half-life by HPLC; settings: 5 mM glutathione (GSH) in IMDM with 10% FBS

Structure (SMILES)	half-life at 25 μM (glutathione (GSH))	IC50 (MV4-11 cells)
COc1cc(C(=O)O)ccc1N(Cc1cc(C2CC2)cc(C(C)(C)C)c1)C(=O)C[C@@H](C)N(Cc1ccccc1F)S(=O)(=O)c1c(F)c(F)c(F)c(F)c1F [Compound 1073]	0.00167 to 2.37 h	316 to 1000 nM
COc1cc(C(=O)O)ccc1N(Cc1cc(C2CC2)cc(C(C)(C)C)c1)C(=O)CN(Cc1c(Cl)cc(F)cc1Cl)S(=O)(=O)c1c(F)c(F)c(F)c(F)c1F [Compound 1079, 4-(N-(3-(tert-butyl)-5-cyclopropylbenzyl)-2-(N-(2,6-dichloro-4-fluorobenzyl)-(2,3,4,5,6-pentafluorophenyl)sulfon-amido)acetamido)-3-methoxybenzoic acid]	4.12 to 9.23 h	0.01 to 316 nM
CC(c1cc(CN(C(=O)CN(Cc2ccccc2F)S(=O)(=O)c2c(F)c(F)c(F)c(F)c2F)c2ccc(C(=O)O)c(O)c2)cc(C2CC2)c1)C(F)(F)F (centres unmarked) [Compound 1086, 4-(N-(3-cyclopropyl-5-(1,1,1-trifluoropropan-2-yl)benzyl)-2-(N-(2-fluorobenzyl)-(2,3,4,5,6-pentafluoro-phenyl)sulfonamido)acetamido)-2-hydroxybenzoic acid]	2.37 to 4.12 h	1000 to 3160 nM
Cc1cc(C(=O)O)ccc1N(Cc1cc(C2CC2)cc(C(C)(C)C)c1)C(=O)CN(Cc1ccccc1C#N)S(=O)(=O)c1c(F)c(F)c(F)c(F)c1F [Compound 1090, 4-(N-(3-(tert-butyl)-5-cyclopropylbenzyl)-2-(N-(2-cyanobenzyl)-(2,3,4,5,6-pentafluorophenyl)sulfon-amido)acetamido)-3-methylbenzoic acid]	2.37 to 4.12 h	316 to 1000 nM
CC(C)(C)c1cc(CN(C(=O)CN(Cc2ccccc2F)S(=O)(=O)c2c(F)c(F)c(F)c(F)c2F)c2ccc(C(=O)O)cc2OC2CC(F)(F)C2)cc(C2CC2)c1 [Compound 1093, 4-(N-(3-(tert-butyl)-5-cyclopropylbenzyl)-2-(N-(2-fluorobenzyl)-(2,3,4,5,6-pentafluoro-phenyl)sulfonamido)acetamido)-3-(3,3-difluorocyclobutoxy) benzoic acid]	9.23 to 1670 h	316 to 1000 nM
O=C(O)c1ccc(N(Cc2cc(C3CC3)cc(C3CC3)c2)C(=O)CN(Cc2ccccc2F)S(=O)(=O)c2c(F)c(F)c(F)c(F)c2F)c(OC2CC2)c1 [Compound 1099, 3-cyclopropoxy-4-(N-(3,5-dicyclopropylbenzyl)-2-(N-(2-fluorobenzyl)-(2,3,4,5,6-pentafluoro-phenyl)sulfonamido)acetamido)benzoic acid]	4.12 to 9.23 h	0.01 to 316 nM
CC(C)(C)c1cc(CN(C(=O)CN(C2CC2)S(=O)(=O)c2c(F)c(F)c(F)c(F)c2F)c2ccc(C(=O)O)cc2OC2CC2)cc(C2CC2)c1 [Compound 1100, 4-(N-(3-(tert-butyl)-5-cyclopropylbenzyl)-2-(N-cyclopropyl-(2,3,4,5,6-pentafluorophenyl)sulfon-amido)acetamido)-3-cyclopropoxybenzoic acid]	0.00167 to 2.37 h	316 to 1000 nM
CN(C)c1cc(C(=O)O)ccc1N(Cc1cc(C2CC2)cc(C(C)(C)C)c1)C(=O)CN(Cc1ccccc1F)S(=O)(=O)c1c(F)c(F)c(F)c(F)c1F [Compound 1105, 4-(N-(3-(tert-butyl)-5-cyclopropylbenzyl)-2-(N-(2-fluorobenzyl)-(2,3,4,5,6-pentafluoro-phenyl)sulfonamido)acetamido)-3-(dimethylamino)benzoic acid]	4.12 to 9.23 h	0.01 to 316 nM
CC(C)(C)c1cc(CN(C(=O)CN(Cc2ccccc2F)S(=O)(=O)c2c(F)c(F)c(F)c(F)c2F)c2cc(C(=O)O)ccc2OC2CC2)cc(C2CC2)c1 [Compound 1110, 3-(N-(3-(tert-butyl)-5-cyclopropylbenzyl)-2-(N-(2-fluorobenzyl)-(2,3,4,5,6-pentafluoro-phenyl)sulfonamido)acetamido)-4-cyclopropoxybenzoic acid]	2.37 to 4.12 h	316 to 1000 nM

Second part, led by results:

half-life at 25 μM (glutathione (GSH))	Structure (SMILES)	IC50 (MV4-11 cells)
2.37 to 4.12 h	COc1cc(C(=O)O)ccc1N(Cc1cc(C2CC2)cc(C(C)(C)C)c1)C(=O)CN(Cc1ccc(F)cc1F)S(=O)(=O)c1c(F)c(F)c(F)c(F)c1F [Compound 1076, 4-(N-(3-(tert-butyl)-5-cyclopropylbenzyl)-2-(N-(2,4-difluorobenzyl)-(2,3,4,5,6-pentafluorophenyl)sulfon-amido)acetamido)-3-methoxybenzoic acid]	316 to 1000 nM
2.37 to 4.12 h	COc1cc(F)ccc1CN(CC(=O)N(Cc1cc(C2CC2)cc(C(C)(C)C)c1)c1ccc(C(=O)O)cc1OC)S(=O)(=O)c1c(F)c(F)c(F)c(F)c1F [Compound 1077, 4-(N-(3-(tert-butyl)-5-cyclopropylbenzyl)-2-(N-(4-fluoro-2-methoxybenzyl)-(2,3,4,5,6-pentafluoro-phenyl)sulfonamido)acetamido)-3-methoxybenzoic acid]	316 to 1000 nM
2.37 to 4.12 h	COc1cc(C(=O)O)ccc1N(Cc1cc(C2CC2)cc(C(C)(C)C)c1)C(=O)CN(Cc1cccc(F)c1F)S(=O)(=O)c1c(F)c(F)c(F)c(F)c1F [Compound 1080, 4-(N-(3-(tert-butyl)-5-cyclopropylbenzyl)-2-(N-(2,3-difluorobenzyl)-(2,3,4,5,6-pentafluorophenyl)sulfonamido)acetamido)-3-methoxybenzoic acid]	0.01 to 316 nM
2.37 to 4.12 h	COc1cc(C(=O)O)ccc1N(Cc1cc(C2CC2)cc(C(C)(C)C)c1)C(=O)CN(Cc1c(F)c(F)cc(F)c1F)S(=O)(=O)c1c(F)c(F)c(F)c(F)c1F [Compound 1082, 4-(N-(3-(tert-butyl)-5-cyclopropylbenzyl)-2-(N-(2,3,5,6-tetrafluorobenzyl)-(2,3,4,5,6-pentafluoro-phenyl)sulfonamido)acetamido)-3-methoxybenzoic acid]	0.01 to 316 nM
4.12 to 9.23 h	COc1cc(C(=O)O)ccc1N(Cc1cc(C2CC2)cc(C(C)(C)C)c1)C(=O)CN(Cc1ccc(F)c(F)c1F)S(=O)(=O)c1c(F)c(F)c(F)c(F)c1F [Compound 1083, 4-(N-(3-(tert-butyl)-5-cyclopropylbenzyl)-2-(N-(2,3,4-trifluorobenzyl)-(2,3,4,5,6-pentafluoro-phenyl)sulfonamido)acetamido)-3-methoxybenzoic acid]	0.01 to 316 nM
0.00167 to 2.37 h	COc1cc(C(=O)O)ccc1N(Cc1cc(C2CC2)cc(C(C)(C)C)c1)C(=O)CN(Cc1ncccc1F)S(=O)(=O)c1c(F)c(F)c(F)c(F)c1F [Compound 1084, 4-(N-(3-(tert-butyl)-5-cyclopropylbenzyl)-2-(N-((3-fluoropyridin-2-yl)methyl)-(2,3,4,5,6-pentafluoro-phenyl)sulfonamido)acetamido)-3-methoxybenzoic acid]	316 to 1000 nM
0.00167 to 2.37 h	COc1cc(C(=O)O)ccc1N(Cc1cc(C2CC2)cc(C(C)(C)C)c1)C(=O)CN(Cc1ccc(F)cn1)S(=O)(=O)c1c(F)c(F)c(F)c(F)c1F [Compound 1085, 4-(N-(3-(tert-butyl)-5-cyclopropylbenzyl)-2-(N-((5-fluoropyridin-2-yl)methyl)-(2,3,4,5,6-pentafluoro-phenyl)sulfonamido)acetamido)-3-methoxybenzoic acid]	316 to 1000 nM
2.37 to 4.12 h	Cc1cc(C(=O)O)ccc1N(Cc1cc(C2CC2)cc(C(C)(C)C)c1)C(=O)CN(Cc1ccccc1F)S(=O)(=O)c1c(F)c(F)c(F)c(F)c1F [Compound 1088, 4-(N-(3-(tert-butyl)-5-cyclopropylbenzyl)-2-(N-(2-fluorobenzyl)-(2,3,4,5,6-pentafluoro-phenyl)sulfonamido)acetamido)-3-methylbenzoic acid]	0.01 to 316 nM
9.23 to 1670 h	Cc1cc(C(=O)O)ccc1N(Cc1cc(C2CC2)cc(C(C)(C)C)c1)C(=O)CN(Cc1ccccc1C(F)(F)F)S(=O)(=O)c1c(F)c(F)c(F)c(F)c1F [Compound 1089, 4-(N-(3-(tert-butyl)-5-cyclopropylbenzyl)-2-(N-(2-(trifluoromethyl)benzyl)-(2,3,4,5,6-pentafluoro-phenyl)sulfonamido)acetamido)-3-methylbenzoic acid]	316 to 1000 nM
0.00167 to 2.37 h	COc1cc(C(=O)O)ccc1N(Cc1cc(C2CC2)cc(C(C)(C)C)c1)C(=O)CN(Cc1ccc(F)nc1F)S(=O)(=O)c1c(F)c(F)c(F)c(F)c1F [Compound 1095, 4-(N-(3-(tert-butyl)-5-cyclopropylbenzyl)-2-(N-((2,6-difluoropyridin-3-yl)methyl)-(2,3,4,5,6-pentafluorophenyl)sulfon-amido)acetamido)-3-methoxybenzoic acid]	0.01 to 316 nM
4.12 to 9.23 h	COc1cc(C(=O)O)ccc1N(Cc1cc(C2CC2)cc(C(C)(C)C)c1)C(=O)CN(Cc1cccnc1C(F)(F)F)S(=O)(=O)c1c(F)c(F)c(F)c(F)c1F [Compound 1097, 4-(N-(3-(tert-butyl)-5-cyclopropylbenzyl)-2-(N-((2-(trifluoromethyl)pyridin-3-yl)methyl)-(2,3,4,5,6-pentafluoro-phenyl)sulfonamido)acetamido)-3-methoxybenzoic acid]	316 to 1000 nM
4.12 to 9.23 h	CC(C)(C)c1cc(CN(C(=O)CN(Cc2ncccc2C(F)(F)F)S(=O)(=O)c2c(F)c(F)c(F)c(F)c2F)c2ccc(C(=O)O)cc2C2CC2)cc(C2CC2)c1 [Compound 1115, 4-(N-(3-(tert-butyl)-5-cyclopropylbenzyl)-2-(N-((3-(trifluoromethyl)pyridin-2-yl)methyl)-(2,3,4,5,6-pentafluoro-phenyl)sulfonamido)acetamido)-3-cyclopropylbenzoic acid]	0.01 to 316 nM
2.37 to 4.12 h	COc1cc(C(=O)O)ccc1N(Cc1cc(C2CC2)cc(C(C)(C)C)c1)C(=O)CN(Cc1ccc(C(F)(F)F)cn1)S(=O)(=O)c1c(F)c(F)c(F)c(F)c1F [Compound 1117, 4-(N-(3-(tert-butyl)-5-cyclopropylbenzyl)-2-(N-((5-(trifluoromethyl)pyridin-2-yl)methyl)-(2,3,4,5,6-pentafluoro-phenyl)sulfonamido)acetamido)-3-methoxybenzoic acid]	316 to 1000 nM
